Consider two molecules from patent US20220370310A1, “SURFACE-TREATED MAGNESIUM OR CALCIUM ION-CONTAINING MATERIALS AS WHITE PIGMENTS IN ORAL CARE COMPOSITIONS” (CHILDREN'S MEDICAL CENTER CORPORATION, priority 2020, published 2022).

Assay [1] deals with antigen-specific T cell responses. Put plainly: In vivo OVA immunization and T cell re-stimulation. Further details: species or system C57BL/6J mice. As for the experimental part: Flow cytometry: After FcR blockade, 7 days BMDCs were resuspended in MACS buffer (PBS with 1% FCS and 2 mM EDTA), and stained with the following fluorescently conjugated antibodies (BioLegend): anti-CD11c (clone N418), anti-I-A/I-E (clone M5/114.15.2), anti-CD40 (clone 3/23), anti-CD80(16-10A1), anti-CD69 clone (H1.2F3), anti-H-2Kb (clone AF6-88.5). Single cell suspension from the tumor or draining inguinal lymph nodes, or skin inguinal adipose tissue were resuspended in MACS buffer (PBS with 1% FCS and 2 mM EDTA), and stained with the following fluorescently conjugated antibodies (BioLegend): anti-CD8a (clone 53-6.7), anti-CD4 (clone RM4-5), anti-CD44 (clone IM7), anti-CD62L (MEL-14), anti-CD3 (17A2), anti-CD103 (2E7), anti-CD69 clone (H1.2F3), anti-CD45 (A20 or 30F11). LIVE/DEAD™ Fixable Violet Dead Cell Stain Kit (Molecular probes) was used to determine the viability of cells, and cells were stained for 20 minutes in PBS at 4° C. Draining inguinal lymph nodes T cells were stained with OVA-peptide tetramers at room temperature for 1 h. PE-conjugated H2K(b) SIINFEKL (OVA 257-264; SEQ ID NO: 1) and APC conjugated I-A(b) AAHAEINEA (OVA 329-337; SEQ ID NO: 2) were used. I-A(b) and H2K(b) associated with CLIP peptides were used as isotype controls. […] Data were analyzed using FlowJo software.
Intracellular staining: For intracellular cytokine staining, cells were stimulated with 50 ng/ml phorbol 12-myristate 13-acetate (PMA) and 500 ng/ml ionomycin (Sigma-Aldrich) in the presence of GolgiStop (BD) and brefeldin A for 4-5 h. […] Data were analyzed using FlowJo software.
In vivo immunization and T cell re-stimulation: Female C57BL/6J mice aged 8 weeks, were immunized subcutaneously (s.c.) on the left lower back with either 150 μg/mouse endotoxin-free OVA plus 10 μg/mouse LPS emulsified in incomplete Freund's adjuvant, or with 150 μg/mouse endotoxin-free OVA, plus 65 μg/mouse oxPAPC or PGPC, plus 10 μg/mouse LPS emulsified in incomplete Freund's adjuvant. […] Secretion of IFNγ, IL-10 and IL-2 were measured by ELISA 5 days later. […]

A further assay concerns B16OVA cells. Put plainly: Immunization prior to tumor inoculation, B16OVA challenge. Format: in vivo, C57BL/6 mice. The following applies: s.c. immunization with B16OVA WTL, challenge 15 days later. As for the experimental part: Whole tumor cell lysates preparation: To prepare whole tumor cell lysates (WTL) for immunization, tumor cell lines were cultured for 4-5 days in complete DMEM. When cells became confluent, supernatants were collected, and the cells were washed and dissociated using trypsin-EDTA (Gibco). Tumor cell lines were then resuspended at 5×10^6 cells/ml in their collected culture supernatant, then lysed by 3 cycles of freeze-thawing.
In vivo immunization and tumor challenges: For immunization prior tumor inoculation, C57BL/6 mice were injected subcutaneously (s.c.) into the right flank with PBS (unimmunized), WTL alone or with LPS, or WTL plus LPS and OxPAPC or PGPC all emulsified in incomplete Freud's adjuvant (IFA). In some experiments, LPS is replaced by MPLA. […] Tumor-free mice were re-challenged s.c. into the upper back with a lethal dose of 5×10^5 viable B16OVA or B16F-10 cells, or 1×10^6 of viable MC38-OVA cells as indicated.
Tumor Infiltration: To assess the frequency of tumor-infiltrating lymphocytes (TIL) in immunized mice, tumors were harvested when their size reached 1.8-2 cm. Tumors were dissociated using the tumor Dissociation Kit (Milteny Biotec) and the gentleMACS dissociator following the manufacturer's protocol. […] CD45^+ cells were positively selected using CD45 microbeads (Milteny Biotec), and T cell infiltration was assessed by flow cytometry. […]

Another assay concerns OT-I and OT-II T cells. Put plainly: OT-I and OT-II in vitro T-cell stimulation. The class given is cell-based, mouse. The following applies: OVA-loaded BMDCs pretreated with stimulus, FIG. 1F. As for the experimental part:
OT-I and OT-II in vitro T-cell stimulation: Splenic CD8+ and CD4^+ T cells were sorted from OT-I and OT-II mice by magnetic cell sorting with anti-CD8 beads or anti-CD4 beads respectively (Miltenyi Biotech). Sorted T cells were then seeded in 96-well plates at a concentration of 100.000 cells per well in the presence of either 20.000 or 10.000 DCs (5:1 or 10:1 ratio) that were pretreated with either LPS (activation stimuli) or LPS+PGPC (hyperactivation stimuli) or LPS+Alum (pyroptotic stimuli) and pulsed (or not) with OVA protein or SIINFEKL (SEQ ID NO: 1) peptide at 100 μg/ml for 2 hours. 5 days post culture, supernatants were collected and clarified by centrifugation for short-term storage at −20° C. and cytokine measurement by ELISA.
Intracellular staining: For intracellular cytokine staining, cells were stimulated with 50 ng/ml phorbol 12-myristate 13-acetate (PMA) and 500 ng/ml ionomycin (Sigma-Aldrich) in the presence of GolgiStop (BD) and brefeldin A for 4-5 h. Cells were then washed twice with PBS, and stained with LIVE/DEAD™ Fixable violet or green Dead Cell Stain Kit (Molecular probes) in PBS for 20 min at 4° C. Cells were washed with MACS buffer, and stained for appropriate surface markers for 20 min at 4° C. […] Data were analyzed using FlowJo software.

The test system of a further assay is BMDCs. The following applies: prior work (Zanoni et al., 2016); cited from earlier work.

As to `CCCCCCCCCCCCCCCC(=O)OC[C@H](COP(=O)([O-])OCC[N+](C)(C)C)OC(=O)CCCC(=O)O` [PGPC, [(2R)-2-(4-carboxybutanoyloxy)-3-hexadecanoyloxypropyl] 2-(trimethylazaniumyl)ethyl phosphate], the “effector and memory T cell generation in dLN” value in assay [1] (7 and 40 days post-immunization with OVA (+LPS), CD44/CD62L flow cytometry) is “enhance the magnitude of effector and memory T cell generation”. The “antigen-specific tetramer+IFNγ+ T cell responses” value in assay [1] (WT mice, 7 days post immunization with OVA, re-stimulated 7 days with OVA-loaded BMDC) is given as “highest frequency of tetramer+IFNγ+ responses”. Moreover, the “protection against B16OVA tumor challenge” value with B16OVA cells was “confers optimal protection”.

Take lipopolysaccharide [LPS]: in the assay on OT-I and OT-II T cells, the “IL-10 and IL-13 release by OT-II T cells” value is “large amounts of IL-10, and IL-13”. Also, the “TH1/TH2 phenotype of the T cell response” value in assay [1] (immunization with OVA) is “mixed TH1 and TH2 phenotype”. Also, in the assay on BMDCs, the “TNFα and IL-1β release by LPS-activated BMDCs” value is given as “release TNFα but not IL-1β”.
